Columns and labels:
Assay type in all cases: in vivo
rice (Oryza saliva) [1] = experiment: Test B preemergence
Procedure, shortened: (§1)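 Greenhouse test: chemicals are formulated in a surfactant-containing non-phytotoxic solvent and applied either preemergence to planted seeds or postemergence to plants 2 to 18 cm tall. Response is rated visually versus controls after 13 to 15 days, 0 meaning no effect and 100 complete control.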

[2] = test system: lambsquarters (Chenopodium album); experiment: Test B preemergence
Procedure, shortened: as §1

[3] = test system: velvetleaf (Abutilon theophrasti); experiment: Test B preemergence
Procedure, shortened: as §1

[4] = test system: cocklebur (Xanthium strumarium); experiment: Test B preemergence
Procedure, shortened: as §1

[5] = test system: giant foxtail (Setaria faberii); experiment: Test B preemergence
Procedure, shortened: as §1

[6] = test system: crabgrass (Digitaria sanguinalis); experiment: Test B preemergence
Procedure, shortened: as §1

corn (Zea mays) [7] = experiment: Test B preemergence
Procedure, shortened: as §1

[8] = test system: Surinam grass (Brachiaria decumbens); experiment: Test B preemergence
Procedure, shortened: as §1

[9] = test system: barnyardgrass (Echinochloa crus-galli); experiment: Test B preemergence
Procedure, shortened: as §1

[10] = test system: morning glory (Ipomoea hederacea); experiment: Test B preemergence
Procedure, shortened: as §1

[11] = test system: pigweed (Amaranthus retroflexus); experiment: Test B preemergence
Procedure, shortened: as §1

[12] = test system: wheat (Triticum aestivum); experiment: Test B postemergence; settings: 13 to 15 days
Procedure, shortened: as §1

[13] = test system: lambsquarters (Chenopodium album); experiment: Test B postemergence; settings: 13 to 15 days
Procedure, shortened: as §1

[14] = test system: velvetleaf (Abutilon theophrasti); experiment: Test B postemergence; settings: 13 to 15 days
Procedure, shortened: as §1

[15] = test system: cocklebur (Xanthium strumarium); experiment: Test B postemergence; settings: 13 to 15 days
Procedure, shortened: as §1

[16] = test system: giant foxtail (Setaria faberii); experiment: Test B postemergence; settings: 13 to 15 days
Procedure, shortened: as §1

[17] = test system: crabgrass (Digitaria sanguinalis); experiment: Test B postemergence; settings: 13 to 15 days
Procedure, shortened: as §1

corn (Zea mays) [18] = experiment: Test B postemergence; settings: 13 to 15 days
Procedure, shortened: as §1

wild oat (Avena fatua) = experiment: Test B postemergence; settings: 13 to 15 days
Procedure, shortened: as §1

[19] = test system: Surinam grass (Brachiaria decumbens); experiment: Test B postemergence; settings: 13 to 15 days
Procedure, shortened: as §1

[20] = test system: barnyardgrass (Echinochloa crus-galli); experiment: Test B postemergence; settings: 13 to 15 days
Procedure, shortened: as §1

[21] = test system: morning glory (Ipomoea hederacea); experiment: Test B postemergence; settings: 13 to 15 days
Procedure, shortened: as §1

[22] = test system: blackgrass (Alopecurus myosuroides); experiment: Test B postemergence; settings: 13 to 15 days
Procedure, shortened: as §1

[23] = test system: pigweed (Amaranthus retroflexus); experiment: Test B postemergence; settings: 13 to 15 days
Procedure, shortened: as §1

rice (Oryza saliva) [24] = experiment: Test C flooded paddy test; settings: for Rice plant response rating: Flooded Paddy, scale 0 to 100, 0 no effect, 100 complete control; for Plant response rating, Rice: flooded paddy test, scale 0 to 100 (0 no effect, 100 complete control)
Procedure, shortened: (§2)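 Visual ratings (0 = no effect, 100 = complete control) were made 12–14 days after treatment, relative to greenhouse controls. Plants in the flooded paddy test were rice, smallflower flatsedge, duck salad and barnyardgrass, treated at the 2-leaf stage.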

[25] = test system: duck salad (Heteranthera limosa); experiment: Test C flooded paddy test; settings: for Ducksalad plant response rating: Flooded Paddy, scale 0 to 100, 0 no effect, 100 complete control; for Plant response rating, Ducksalad: flooded paddy test, scale 0 to 100 (0 no effect, 100 complete control)
Procedure, shortened: as §2

[26] = test system: barnyardgrass (Echinochloa crus-galli); experiment: Test C flooded paddy test; settings: for Barnyardgrass plant response rating: Flooded Paddy, scale 0 to 100, 0 no effect, 100 complete control; for Plant response rating, Barnyardgrass: flooded paddy test, scale 0 to 100 (0 no effect, 100 complete control)
Procedure, shortened: as §2

[27] = test system: smallflower flatsedge (Cyperus difformis); experiment: Test C flooded paddy test; settings: for Flatsedge plant response rating: Flooded Paddy, scale 0 to 100, 0 no effect, 100 complete control; for Plant response rating, Flatsedge: flooded paddy test, scale 0 to 100 (0 no effect, 100 complete control)
Procedure, shortened: as §2

rice (Oryza saliva) [28] = experiment: Test B flooded paddy test; settings: Rate 1000 g/ha, scale of 0 to 100 where 0 is no effect and 100 is complete control, visually evaluated after 13 to 15 days
Procedure, shortened: (§3)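 Visual injury score on a 0–100 scale, where 100 means complete control, assigned against untreated controls 13 to 15 days after plants at the 2-leaf stage were treated under flooded paddy conditions.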

[29] = test system: duck salad (Heteranthera limosa); experiment: Test B flooded paddy test; settings: Rate 1000 g/ha, scale of 0 to 100 where 0 is no effect and 100 is complete control, visually evaluated after 13 to 15 days
Procedure, shortened: as §3

[30] = test system: barnyardgrass (Echinochloa crus-galli); experiment: Test B flooded paddy test; settings: Rate 1000 g/ha, scale of 0 to 100 where 0 is no effect and 100 is complete control, visually evaluated after 13 to 15 days
Procedure, shortened: as §3

[31] = test system: smallflower flatsedge (Cyperus difformis); experiment: Test B flooded paddy test; settings: Rate 1000 g/ha, scale of 0 to 100 where 0 is no effect and 100 is complete control, visually evaluated after 13 to 15 days
Procedure, shortened: as §3

[32] = Preemergence, Rate 500 g/ha, scale 0 to 100, 0 no effect, 100 complete control
[33] = preemergence, Rate 125 g/ha, scale of 0 to 100 where 0 is no effect and 100 is complete control, 13 to 15 days
[34] = Rate 125 g/ha, scale 0 (no effect) to 100 (complete control)
[35] = Rate 500 g/ha, scale 0 to 100, 0 is no effect, 100 is complete control

## CC(C)(C)c1ccn(C2CCN(c3cc(C(F)(F)F)cc(C(F)(F)F)c3)C2=O)n1 (centres unmarked) [Compound 54]
Rice (Oryza saliva) [1]; [32]
  Plant response rating, Rice: 0
Rice (Oryza saliva) [1]; [33]
  Plant response rating, Rice: 0
[2]; [32]
  Plant response rating, Lambsquarters: 0
[2]; [33]
  Plant response rating, Lambsquarters: 0
[3]; [32]
  Plant response rating, Velvetleaf: 0
[3]; [33]
  Plant response rating, Velvetleaf: 0
[4]; [32]
  Plant response rating, Cocklebur: 0
[4]; [33]
  Plant response rating, Cocklebur: 0
[5]; [32]
  Plant response rating, Foxtail, Giant: 0
[5]; [33]
  Plant response rating, Foxtail, Giant: 0
[6]; [32]
  Plant response rating, Crabgrass: 0
[6]; [33]
  Plant response rating, Crabgrass: 0
Corn (Zea mays) [7]; [32]
  Plant response rating, Corn: 0
Corn (Zea mays) [7]; [33]
  Plant response rating, Corn: 0
[8]; [32]
  Plant response rating, Surinam grass: 0
[8]; [33]
  Plant response rating, Surinam grass: 0
[9]; [32]
  Plant response rating, Barnyardgrass: 0
[9]; [33]
  Plant response rating, Barnyardgrass: 0
[10]; [32]
  Plant response rating, Morningglory: 0
[10]; [33]
  Plant response rating, Morningglory: 0
[11]; [32]
  Plant response rating, Pigweed: 0
[11]; [33]
  Plant response rating, Pigweed: 0
[12]; [34]
  Plant response rating, Wheat: 0
[12]; [35]
  Plant response rating, Wheat: 0
[13]; [34]
  Plant response rating, Lambsquarters: 0
[13]; [35]
  Plant response rating, Lambsquarters: 30
[14]; [34]
  Plant response rating, Velvetleaf: 0
[14]; [35]
  Plant response rating, Velvetleaf: 0
[15]; [34]
  Plant response rating, Cocklebur: 0
[15]; [35]
  Plant response rating, Cocklebur: 20
[16]; [34]
  Plant response rating, Foxtail, Giant: 0
[16]; [35]
  Plant response rating, Foxtail, Giant: 0
[17]; [34]
  Plant response rating, Crabgrass: 0
[17]; [35]
  Plant response rating, Crabgrass: 0
Corn (Zea mays) [18]; [34]
  Plant response rating, Corn: 0
Corn (Zea mays) [18]; [35]
  Plant response rating, Corn: 0
Wild oat (Avena fatua); [34]
  Plant response rating, Wild Oat: 0
Wild oat (Avena fatua); [35]
  Plant response rating, Wild Oat: 0
[19]; [34]
  Plant response rating, Surinam grass: 0
[19]; [35]
  Plant response rating, Surinam grass: 0
[20]; [34]
  Plant response rating, Barnyardgrass: 0
[20]; [35]
  Plant response rating, Barnyardgrass: 0
[21]; [34]
  Plant response rating, Morningglory: 0
[21]; [35]
  Plant response rating, Morningglory: 20
[22]; [34]
  Plant response rating, Blackgrass: 0
[22]; [35]
  Plant response rating, Blackgrass: 0
[23]; [34]
  Plant response rating, Pigweed: 0
[23]; [35]
  Plant response rating, Pigweed: 0
Rice (Oryza saliva) [24]; Rate 250 g/ha
  Rice plant response rating: 0
Rice (Oryza saliva) [24]; Rate 500 g/ha
  Rice plant response rating: 0
Rice (Oryza saliva) [24]; Rate 62 g/ha
  Plant response rating, Rice: 0
Rice (Oryza saliva) [24]; Rate 125 g/ha
  Plant response rating, Rice: 0
[25]; Rate 250 g/ha
  Ducksalad plant response rating: 0
[25]; Rate 500 g/ha
  Ducksalad plant response rating: 0
[25]; Rate 62 g/ha
  Plant response rating, Ducksalad: 0
[25]; Rate 125 g/ha
  Plant response rating, Ducksalad: 0
[26]; Rate 250 g/ha
  Barnyardgrass plant response rating: 20
[26]; Rate 500 g/ha
  Barnyardgrass plant response rating: 20
[26]; Rate 62 g/ha
  Plant response rating, Barnyardgrass: 0
[26]; Rate 125 g/ha
  Plant response rating, Barnyardgrass: 0
[27]; Rate 250 g/ha
  Flatsedge plant response rating: 0
[27]; Rate 500 g/ha
  Flatsedge plant response rating: 80
[27]; Rate 62 g/ha
  Plant response rating, Flatsedge: 0
[27]; Rate 125 g/ha
  Plant response rating, Flatsedge: 0
Rice (Oryza saliva) [28]
  Plant response rating, Rice: 0
[29]
  Plant response rating, Ducksalad: 30
[30]
  Plant response rating, Barnyardgrass: 80
[31]
  Plant response rating, Flatsedge: 90

## CC(C)(C)c1ccn(C2CCN(c3cc(Cl)cc(Cl)c3)C2=O)n1 (centres unmarked) [Compound 55]
Rice (Oryza saliva) [1]; [32]
  Plant response rating, Rice: 0
Rice (Oryza saliva) [1]; [33]
  Plant response rating, Rice: 0
[2]; [32]
  Plant response rating, Lambsquarters: 0
[2]; [33]
  Plant response rating, Lambsquarters: 0
[3]; [32]
  Plant response rating, Velvetleaf: 0
[3]; [33]
  Plant response rating, Velvetleaf: 0
[4]; [33]
  Plant response rating, Cocklebur: 0
[5]; [32]
  Plant response rating, Foxtail, Giant: 0
[5]; [33]
  Plant response rating, Foxtail, Giant: 0
[6]; [32]
  Plant response rating, Crabgrass: 0
[6]; [33]
  Plant response rating, Crabgrass: 0
Corn (Zea mays) [7]; [32]
  Plant response rating, Corn: 0
Corn (Zea mays) [7]; [33]
  Plant response rating, Corn: 0
[8]; [32]
  Plant response rating, Surinam grass: 0
[8]; [33]
  Plant response rating, Surinam grass: 0
[9]; [32]
  Plant response rating, Barnyardgrass: 0
[9]; [33]
  Plant response rating, Barnyardgrass: 0
[10]; [32]
  Plant response rating, Morningglory: 0
[10]; [33]
  Plant response rating, Morningglory: 0
[11]; [32]
  Plant response rating, Pigweed: 0
[12]; [34]
  Plant response rating, Wheat: 0
[12]; [35]
  Plant response rating, Wheat: 0
[13]; [34]
  Plant response rating, Lambsquarters: 0
[13]; [35]
  Plant response rating, Lambsquarters: 0
[14]; [34]
  Plant response rating, Velvetleaf: 0
[14]; [35]
  Plant response rating, Velvetleaf: 0
[15]; [34]
  Plant response rating, Cocklebur: 10
[15]; [35]
  Plant response rating, Cocklebur: 10
[16]; [34]
  Plant response rating, Foxtail, Giant: 0
[16]; [35]
  Plant response rating, Foxtail, Giant: 0
[17]; [34]
  Plant response rating, Crabgrass: 0
[17]; [35]
  Plant response rating, Crabgrass: 0
Corn (Zea mays) [18]; [34]
  Plant response rating, Corn: 0
Corn (Zea mays) [18]; [35]
  Plant response rating, Corn: 0
Wild oat (Avena fatua); [34]
  Plant response rating, Wild Oat: 0
Wild oat (Avena fatua); [35]
  Plant response rating, Wild Oat: 0
[19]; [34]
  Plant response rating, Surinam grass: 0
[19]; [35]
  Plant response rating, Surinam grass: 0
[20]; [34]
  Plant response rating, Barnyardgrass: 0
[20]; [35]
  Plant response rating, Barnyardgrass: 0
[21]; [34]
  Plant response rating, Morningglory: 0
[21]; [35]
  Plant response rating, Morningglory: 30
[22]; [34]
  Plant response rating, Blackgrass: 0
[22]; [35]
  Plant response rating, Blackgrass: 0
[23]; [34]
  Plant response rating, Pigweed: 0
[23]; [35]
  Plant response rating, Pigweed: 0
Rice (Oryza saliva) [24]; Rate 250 g/ha
  Rice plant response rating: 0
Rice (Oryza saliva) [24]; Rate 500 g/ha
  Rice plant response rating: 0
Rice (Oryza saliva) [24]; Rate 62 g/ha
  Plant response rating, Rice: 0
Rice (Oryza saliva) [24]; Rate 125 g/ha
  Plant response rating, Rice: 0
[25]; Rate 250 g/ha
  Ducksalad plant response rating: 50
[25]; Rate 500 g/ha
  Ducksalad plant response rating: 50
[25]; Rate 62 g/ha
  Plant response rating, Ducksalad: 0
[25]; Rate 125 g/ha
  Plant response rating, Ducksalad: 40
[26]; Rate 250 g/ha
  Barnyardgrass plant response rating: 100
[26]; Rate 500 g/ha
  Barnyardgrass plant response rating: 100
[26]; Rate 62 g/ha
  Plant response rating, Barnyardgrass: 0
[26]; Rate 125 g/ha
  Plant response rating, Barnyardgrass: 50
[27]; Rate 250 g/ha
  Flatsedge plant response rating: 90
[27]; Rate 500 g/ha
  Flatsedge plant response rating: 100
[27]; Rate 62 g/ha
  Plant response rating, Flatsedge: 40
[27]; Rate 125 g/ha
  Plant response rating, Flatsedge: 90
Rice (Oryza saliva) [28]
  Plant response rating, Rice: 0
[29]
  Plant response rating, Ducksalad: 80
[30]
  Plant response rating, Barnyardgrass: 100
[31]
  Plant response rating, Flatsedge: 100
